According to publication PMC7155171, “Probing the Open Global Health Chemical Diversity Library for Multistage-Active Starting Points for Next-Generation Antimalarials” (ACS Infectious Diseases, 2020):

Legend:
[1] = test system: P. berghei liver stage (PbLuc); test: P. berghei luciferase liver stage (PbLuc) assay in HepG2-A16-CD81 hepatocytes; format: cell-based, Plasmodium berghei; details: Plasmodium berghei; for IC50: HepG2-A16-CD81, 12pt dose response, read-out: PbLuc 12pt dose response: IC50; for Emax: HepG2-A16-CD81, 48 h, 12pt dose response, maximum inhibition
[2] = HepG2 cytotoxicity screening (CellTiter-Glo); details: human, uninfected HepG2-A16-CD81 (EGFP) hepatocytes
[3] = test system: HepG2-A16-CD81 hepatocytes; test: HepG2 cytotoxicity screening (CellTiter-Glo); details: for HepG2 cytotoxicity 12pt dose response: Maximum inhibition (%): 12pt dose response
[4] = target: recombinant firefly luciferase (Photinus pyralis, UniProt P08659); test: biochemical; details: dose response; for Emax: maximum inhibition, read-out: rLuc inhibition dose response: Maximum inhibition (%); for IC50: read-out: rLuc inhibition dose response: IC50
Sequence of recombinant firefly luciferase (P08659 whole entry): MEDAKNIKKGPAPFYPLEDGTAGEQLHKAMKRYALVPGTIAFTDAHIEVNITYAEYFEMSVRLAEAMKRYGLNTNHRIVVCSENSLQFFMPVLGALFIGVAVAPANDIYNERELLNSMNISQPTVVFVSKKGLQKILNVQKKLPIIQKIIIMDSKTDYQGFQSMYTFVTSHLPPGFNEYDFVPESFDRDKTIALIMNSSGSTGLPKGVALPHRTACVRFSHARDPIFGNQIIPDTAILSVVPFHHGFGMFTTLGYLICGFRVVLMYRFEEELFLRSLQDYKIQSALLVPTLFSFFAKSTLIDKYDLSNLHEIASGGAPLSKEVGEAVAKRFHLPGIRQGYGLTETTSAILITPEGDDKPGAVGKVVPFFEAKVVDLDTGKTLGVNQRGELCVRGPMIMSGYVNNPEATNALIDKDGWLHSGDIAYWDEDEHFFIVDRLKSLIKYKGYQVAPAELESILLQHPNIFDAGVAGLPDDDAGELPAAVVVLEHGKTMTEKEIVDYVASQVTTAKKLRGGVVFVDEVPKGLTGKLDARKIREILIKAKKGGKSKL

`COc1cc(CN(C)C(=O)Cc2c(C)nn(C)c2C)ccc1OC(F)F` [UCSD-0819780] showed an IC50 [1] of 2.11 µM, an Emax [1] of 80.1% and an IC50 [2] of over 25 µM. For the same compound, the inhibition at 2 µM [2] was 7.57%, the “HepG2 cytotoxicity 12pt dose response: Maximum inhibition (%)” value [3] was 55.1% and the Emax [4] was 6.77%. For the same compound, the IC50 [4] was over 25 µM.

Compound `CCc1ccc(-c2ncc3c(n2)N(C)CCN(CCN(C)C)C3=O)cc1` [UCSD-0824219] has an IC50 [1] of 12.1 µM, an Emax [1] of 81.1% and an IC50 [2] of over 25 µM. The “HepG2 Cytotoxicity primary screen (2uM): % Inhibition” value [3] was 4.38%, the “HepG2 cytotoxicity 12pt dose response: Maximum inhibition (%)” value [3] was 6.88% and the Emax [4] was 7.09%. It also gave an IC50 [4] of over 25 µM.

In the case of `Cc1ccc(Sc2ccc(CN3CCC4(CCCNC4=O)C3)o2)cc1` (centres unmarked) [UCSD-0825128], the IC50 [1] is reported as 14.7 µM, the Emax [1] is reported as 95% and the IC50 [2] is reported as over 25 µM. The “HepG2 Cytotoxicity primary screen (2uM): % Inhibition” value [3] was -4.20%, the “HepG2 cytotoxicity 12pt dose response: Maximum inhibition (%)” value [3] was 8.34% and the Emax [4] was 21.8%. The IC50 [4] was over 25 µM.

With `CC1(c2ccccc2)CCCN(Cc2cncn2C2CCCC2)C1` (centres unmarked) [UCSD-0827293] the IC50 [1] was 13.5 µM, the Emax [1] was 95.5% and the IC50 [2] was 18.7 µM. The “HepG2 Cytotoxicity primary screen (2uM): % Inhibition” value [3] was -6.73%, the “HepG2 cytotoxicity 12pt dose response: Maximum inhibition (%)” value [3] was 58% and the Emax [4] was 7.12%. For the same compound, the IC50 [4] was over 25 µM.

`Clc1ccccc1-c1cc(CNc2ncnc3c2CCNCC3)no1` [UCSD-0827811] gave an IC50 [1] of 13.6 µM, an Emax [1] of 93.4% and an IC50 [2] of over 25 µM. For the same compound, the “HepG2 Cytotoxicity primary screen (2uM): % Inhibition” value [3] was -1.07%, the “HepG2 cytotoxicity 12pt dose response: Maximum inhibition (%)” value [3] was 49.9% and the Emax [4] was 12.2%. It also gave an IC50 [4] of over 25 µM.

With `CC(C)CN1CCCC1c1ccc(C(=O)Nc2cccnc2)s1` (centres unmarked) [UCSD-0828121] the IC50 [1] was 9.26 µM, the IC50 [2] was over 25 µM and the inhibition at 2 µM [2] was 3.83%. The “HepG2 cytotoxicity 12pt dose response: Maximum inhibition (%)” value [3] was 5.88%, the Emax [4] was 38.6% and the IC50 [4] was over 25 µM.

`Fc1ccc(N2CCCN(c3ccc(Cn4ccnc4)cn3)CC2)cc1` [UCSD-0828381] gave an IC50 [1] of 1.16 µM, an Emax [1] of 98.9% and an IC50 [2] of 23.9 µM. For the same compound, the “HepG2 Cytotoxicity primary screen (2uM): % Inhibition” value [3] was 3.83%, the “HepG2 cytotoxicity 12pt dose response: Maximum inhibition (%)” value [3] was 52.6% and the Emax [4] was 34.7%. For the same compound, the IC50 [4] was over 25 µM.

In the case of `COc1ccc2cc(C3CN(C(=O)CCNC(C)=O)CCO3)ccc2c1` (centres unmarked) [UCSD-0829391], the IC50 [1] is reported as 0.333 µM, the Emax [1] is reported as 85.2% and the inhibition at 2 µM ([1]; HepG2-A16-CD81, primary screen, 2 uM) is reported as -1.1%. The IC50 [2] was over 25 µM, the inhibition at 2 µM [2] was -3.5% and the “HepG2 cytotoxicity 12pt dose response: Maximum inhibition (%)” value [3] was 2.45%. For the same compound, the Emax [4] was 67.5% and the IC50 [4] was 9.9 µM.

`c1ccc(OCCNc2ncnc3sc4c(c23)CCNC4)cc1` [UCSD-0829760] showed an IC50 [1] of 9.15 µM, an Emax [1] of 73% and an IC50 [2] of over 25 µM. The inhibition at 2 µM [2] was -2.42%, the “HepG2 cytotoxicity 12pt dose response: Maximum inhibition (%)” value [3] was 42.9% and the Emax [4] was 7.54%. For the same compound, the IC50 [4] was over 25 µM.

Work on `CC(=O)N1CCN(Cc2cccc3c2sc2ccccc23)CC(O)C1` (centres unmarked) [UCSD-0830872] yielded an IC50 [1] of 5.87 µM, an Emax [1] of 91% and an IC50 [2] of over 25 µM. For the same compound, the inhibition at 2 µM [2] was 6.03%, the “HepG2 cytotoxicity 12pt dose response: Maximum inhibition (%)” value [3] was 10.8% and the Emax [4] was 15.6%. For the same compound, the IC50 [4] was over 25 µM.

In the case of `CCc1cnc(N)nc1NC(C)c1ccc(C)c(C)c1` (centres unmarked) [UCSD-0831195], the IC50 [1] is reported as 0.433 µM, the Emax [1] is reported as 89.9% and the IC50 [2] is reported as over 25 µM. For the same compound, the inhibition at 2 µM [2] was 3.76%, the “HepG2 cytotoxicity 12pt dose response: Maximum inhibition (%)” value [3] was 56% and the Emax [4] was 17.1%. It also gave an IC50 [4] of over 50 µM.

`CNC(=O)CCC(=O)N1CCOC(c2ccc3cc(OC)ccc3c2)C1` (centres unmarked) [UCSD-0831800] showed an IC50 [1] of 0.000954 µM, an Emax [1] of 88.9% and an IC50 [2] of over 25 µM. The inhibition at 2 µM [2] was -0.85%, the inhibition at 10 µM [2] was 3.9% and the “HepG2 cytotoxicity 12pt dose response: Maximum inhibition (%)” value [3] was 1%. The Emax [4] was 66.4% and the IC50 [4] was 23.5 µM.

`COc1ccc(-c2cc(CNc3ncnc4c3CCNCC4)no2)cc1` [UCSD-0833048] gave an IC50 [1] of 10.2 µM, an Emax [1] of 91.8% and an IC50 [2] of over 25 µM. The “HepG2 Cytotoxicity primary screen (2uM): % Inhibition” value [3] was 4.02%, the “HepG2 cytotoxicity 12pt dose response: Maximum inhibition (%)” value [3] was 49.3% and the Emax [4] was 0.184%. It also gave an IC50 [4] of over 25 µM.

In the case of `CC(C)(CO)Nc1ccc(-c2nc(-c3ccccc3F)no2)cn1` [UCSD-0833103], the IC50 [1] is reported as under 0.000141 µM, the Emax [1] is reported as 98.5% and the IC50 [2] is reported as over 25 µM. For the same compound, the inhibition at 2 µM [2] was 2.86%, the “HepG2 cytotoxicity 12pt dose response: Maximum inhibition (%)” value [3] was 34.7% and the Emax [4] was 93.7%. It also gave an IC50 [4] of 0.045 µM.

In the case of `CC(Nc1ncnc2c1CCNC2)c1ccc2c(c1)CCCC2` (centres unmarked) [UCSD-0833335], the IC50 [1] is reported as 9.75 µM, the Emax [1] is reported as 79.1% and the IC50 [2] is reported as 18.4 µM. The “HepG2 Cytotoxicity primary screen (2uM): % Inhibition” value [3] was 0.57%, the “HepG2 cytotoxicity 12pt dose response: Maximum inhibition (%)” value [3] was 57.6% and the Emax [4] was 12.6%. The IC50 [4] was over 25 µM.

With `Cc1cc(NC(=O)c2ccc(CN3CC[C@H](O)C3)cc2)ccc1F` [UCSD-0834308] the IC50 [1] was under 0.000282 µM, the Emax [1] was 104% and the IC50 [2] was over 50 µM. The inhibition at 2 µM [2] was 7.88%, the “HepG2 cytotoxicity 12pt dose response: Maximum inhibition (%)” value [3] was 10.3% and the Emax [4] was 100%. The IC50 [4] was under 0.0244 µM.

`CCOC(=O)N1CCN(c2nc(CCN)nc3sc(C)c(C)c23)CC1` [UCSD-0834429] gave an IC50 [1] of 8.74 µM, an Emax [1] of 87.7% and an IC50 [2] of over 25 µM. The inhibition at 2 µM [2] was -5.69%, the inhibition at 10 µM [2] was -49.3% and the “HepG2 cytotoxicity 12pt dose response: Maximum inhibition (%)” value [3] was 28%. The Emax [4] was 5.96% and the IC50 [4] was over 25 µM.

For `CCCc1cncnc1N1CCC(NCc2cc3ccccc3[nH]2)CC1` [UCSD-0834906], the IC50 [1] was 1.84 µM, the Emax [1] was 97.5% and the IC50 [2] was over 25 µM. The inhibition at 2 µM [2] was 7.01%, the “HepG2 cytotoxicity 12pt dose response: Maximum inhibition (%)” value [3] was 32.8% and the Emax [4] was 31.4%. The IC50 [4] was over 25 µM.

In the case of `COc1cccc(-c2noc3c2CN(c2ncnc4c2CCC4)CC3)c1` [UCSD-0837523], the IC50 [1] is reported as 5.79 µM, the Emax [1] is reported as 84.4% and the IC50 [2] is reported as 8.51 µM. The inhibition at 2 µM [2] was -0.62%, the “HepG2 cytotoxicity 12pt dose response: Maximum inhibition (%)” value [3] was 52% and the Emax [4] was 15.5%. The IC50 [4] was over 25 µM.

In the case of `Cc1csc2ncnc(N3CCC(Cn4cc(C(C)(C)N)nn4)CC3)c12` [UCSD-0838044], the IC50 [1] is reported as 11.4 µM, the Emax [1] is reported as 71.7% and the IC50 [2] is reported as over 25 µM. The “HepG2 Cytotoxicity primary screen (2uM): % Inhibition” value [3] was 4.60%, the “HepG2 cytotoxicity 12pt dose response: Maximum inhibition (%)” value [3] was 46.5% and the Emax [4] was 21.9%. For the same compound, the IC50 [4] was over 25 µM.

Work on `COc1ccc2cc(C3CN(C(=O)N(C)C)CCO3)ccc2c1` (centres unmarked) [UCSD-0838135] yielded an IC50 [1] of under 0.000141 µM, an Emax [1] of 82.4% and an IC50 [2] of over 25 µM. The inhibition at 2 µM [2] was -0.4%, the “HepG2 cytotoxicity 12pt dose response: Maximum inhibition (%)” value [3] was 6.4% and the Emax [4] was 91.8%. For the same compound, the IC50 [4] was 3.45 µM.

For `COCc1noc(-c2ccc(N3CCCCC3CO)nc2)n1` (centres unmarked) [UCSD-0838277], the IC50 [1] was under 0.000141 µM, the Emax [1] was 82.5% and the IC50 [2] was over 25 µM. The inhibition at 2 µM [2] was -1.51%, the “HepG2 cytotoxicity 12pt dose response: Maximum inhibition (%)” value [3] was 0.196% and the Emax [4] was 73.7%. It also gave an IC50 [4] of 6.29 µM.

With `Nc1nccc(N2CCCC(CO)(CCOc3ccccc3)C2)n1` (centres unmarked) [UCSD-0838947] the IC50 [1] was 6.46 µM, the Emax [1] was 89.7% and the IC50 [2] was over 25 µM. For the same compound, the inhibition at 2 µM [2] was -2.96%, the “HepG2 cytotoxicity 12pt dose response: Maximum inhibition (%)” value [3] was 51.4% and the Emax [4] was 8.22%. For the same compound, the IC50 [4] was over 25 µM.

With `Nc1nc(CCC(=O)N2CCOC(CC3CCCCC3)C2)cs1` (centres unmarked) [UCSD-0838977] the IC50 [1] was 15 µM, the Emax [1] was 93.7% and the IC50 [2] was over 25 µM. For the same compound, the “HepG2 Cytotoxicity primary screen (2uM): % Inhibition” value [3] was -10.55%, the “HepG2 cytotoxicity 12pt dose response: Maximum inhibition (%)” value [3] was 8.43% and the Emax [4] was 7.71%. It also gave an IC50 [4] of over 25 µM.
